In patent US5756666A, “Peptides capable of inducing immune response to HIV” (priority 1993, dated 1998):
Ends that are not written are not given here.

System: T2-B * 3501 cells

## TPPLVKLWY [HIV(B35)-16]
  induction of CTL with specific cytotoxic activity: effective for inducing CTLs capable of damaging the synthetic peptide-binding T2-B * 3501 cells
